Tests used:
[1] = system: forearm of a human volunteer; test: Human vasoconstriction (blanching) testing, AUC through 18 hours; format: in vivo; conditions: for effect on the time period during which hydrocortisone displayed activity / effect on the vasoconstrictor activity of hydrocortisone: co-applied with hydrocortisone; for effect on the vasoconstrictor activity of hydrocortisone: molar ratio hydrocortisone:enhancer 1:5 to 1:1, particularly at the lower concentrations
Description: The combinations of the present invention have undergone human vasoconstriction, or blanching, testing. Such testing gives a reliable indication of local anti-inflammatory/glucocorticoid activity.
Test compounds at varying mM concentrations as noted below were dissolved in ethanol/propylene glycol (9/1) solution, and 20 μL of the mixtures were applied to filter paper discs, 0.7 cm in diameter. After ethanol evaporation, each disc was attached to waterproof adhesive tape, then applied to the forearm of a human volunteer and left in place for 4 hours. Groups of 6 forearms were tested at each concentration and the intensity of vasoconstriction was judged at 2, 4, 6, 8, 10, 12 and 18 hours after removal of the discs, except where otherwise indicated.
The grading scale for the vasoconstriction activity was as follows: 0, normal skin; 1, slight pallor of indistinct outline; 2, pallor with at least two corners outlined; 3, even pallor with a clear outline of the application sites; 4, very intense pallor. The scores were totaled at each concentration at each time after removal to give a total score at each time interval and an overall total for each concentration. The higher the total score, the greater the blanching or anti-inflammatory effect.
Tested in this manner were hydrocortisone, Δ^1-cortienic acid, the methyl ester of Δ^1-cortienic acid, a combination of hydrocortisone plus Δ^1-cortienic acid, and a combination of hydrocortisone plus the methyl ester of Δ^1-cortienic acid. The structures of the test compounds are shown below:
The data for Δ^1-CA alone and Δ^1-MeCA alone are from a group of 8 volunteers, rather than the 6 used for the other testing.

[2] = system: forearms of human volunteers; test: Further human vasoconstriction testing, AUC through 24 hours; format: in vivo; conditions: for AUC (sum of the individual vasoconstriction scores through 24 hours): total of 6 tests; for effect of increasing the ratio of (II) to (Ia/Ib) to about 2:1: HC 25 mM + enhancer 50 mM versus 1:1; for synergism with HC: ratios of HC:enhancer from 5:1 to 1:2
Description: The objective of this study was to evaluate the effect of Δ^1-cortienic acid (Δ^1-CA) and the methyl ester of Δ^1-cortienic acid (Δ^1-MeCA) on the vasoconstriction effect of hydrocortisone (HC). The structures for HC, Δ^1-CA and Δ^1-MeCA are given above.
HC (50 mM), Δ^1-CA (0, 10, 25, 50 and 100 mM) and Δ^1-MeCA (0, 10, 25, 50 and 100 mM) were dissolved in a vehicle containing absolute ethanol and propylene glycol (9:1). The resultant HC solutions were mixed (1:1) with vehicle only, or with the Δ^1-CA or Δ^1-MeCA solutions, so that 25 mM of final HC solutions containing various concentrations of Δ^1-CA or Δ^1-MeCA (0 to 50 mM) were obtained. The resultant mixtures (20 μl) were loaded onto circular paper discs (7 mm diameter) that were attached to a water impervious adhesive film (3M). After evaporation of ethanol, the films were applied to the forearms of human volunteers for 4 hours.
Subsequently, the vasoconstriction reaction was judged by the appearance of pallor at various time intervals after the removal of the discs and films (2, 4, 6, 8, 10, 12, 18 and 24 hours after removal). The grading scale was as follows: 0, normal skin; 1, slight pallor; 2, pallor with at least two corners outlined; 3, even pallor with a clear outline of the application sites; 4, very intense pallor. Due to the relatively high variations in response between volunteers, the total score of 6 tests at each time period was taken for the activity evaluation. As before, an overall total for each concentration was obtained. The results were as follows, where AUC was estimated at the sum of the individual scores through 24 hours.

[3] = system: forearms of human volunteers; test: as above; format: in vivo; conditions: enhancing agent alone, 0.5-50 mM
[4] = target: T1, receptor ([3H]-triamcinolone acetonide as tracer) (Rattus norvegicus, UniProt P06536); conditions: medium containing 10^−5M cortienic acid as competitor; cited from earlier work
T1 sequence (P06536 1-795): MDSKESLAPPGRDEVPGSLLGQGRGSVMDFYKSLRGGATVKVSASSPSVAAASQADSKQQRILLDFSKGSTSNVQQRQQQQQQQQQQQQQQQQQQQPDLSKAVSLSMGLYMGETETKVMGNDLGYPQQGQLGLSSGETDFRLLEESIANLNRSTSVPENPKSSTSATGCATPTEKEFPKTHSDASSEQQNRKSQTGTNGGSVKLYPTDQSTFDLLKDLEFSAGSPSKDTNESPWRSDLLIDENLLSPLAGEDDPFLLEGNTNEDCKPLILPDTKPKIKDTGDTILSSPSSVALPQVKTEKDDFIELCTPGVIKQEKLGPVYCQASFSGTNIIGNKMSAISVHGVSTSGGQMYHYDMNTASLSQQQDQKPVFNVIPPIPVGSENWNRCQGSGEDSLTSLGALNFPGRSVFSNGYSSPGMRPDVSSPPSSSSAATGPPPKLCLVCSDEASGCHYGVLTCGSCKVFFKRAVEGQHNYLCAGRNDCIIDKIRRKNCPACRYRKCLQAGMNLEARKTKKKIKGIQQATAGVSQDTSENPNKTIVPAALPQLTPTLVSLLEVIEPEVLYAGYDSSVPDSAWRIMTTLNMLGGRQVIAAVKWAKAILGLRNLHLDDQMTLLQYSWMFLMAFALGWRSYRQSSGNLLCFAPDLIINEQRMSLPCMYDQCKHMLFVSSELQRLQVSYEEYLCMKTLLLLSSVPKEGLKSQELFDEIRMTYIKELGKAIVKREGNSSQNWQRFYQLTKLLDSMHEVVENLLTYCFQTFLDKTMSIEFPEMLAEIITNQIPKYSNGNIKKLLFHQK

[5] = enhancing agent alone, 0.5 mM, group of 8 volunteers
[6] = enhancing agent alone, 2.5 mM, group of 8 volunteers
[7] = enhancing agent alone, 5 mM, group of 8 volunteers
[8] = enhancing agent alone, 25 mM, group of 8 volunteers
[9] = enhancing agent alone, 50 mM, group of 8 volunteers

Compound	vasoconstriction activity when tested alone [1]	effect on the time period during which hydrocortisone displayed activity [1]	effect on the vasoconstrictor activity of hydrocortisone [1]	AUC (sum of the individual vasoconstriction scores through 18 hours) [1, 5]	AUC (sum of the individual vasoconstriction scores through 18 hours) [1, 6]	AUC (sum of the individual vasoconstriction scores through 18 hours) [1, 7]	AUC (sum of the individual vasoconstriction scores through 18 hours) [1, 8]	AUC (sum of the individual vasoconstriction scores through 18 hours) [1, 9]	AUC (sum of the individual vasoconstriction scores) [3]	effect of increasing the ratio of (II) to (Ia/Ib) to about 2:1 [2]	effect on the vasoconstriction activity of HC ([2]; co-applied with HC 25 mM)	synergism with HC [2]	other results
C[C@]12CCC(=O)C=C1CC[C@@H]1[C@@H]2[C@@H](O)C[C@@]2(C)[C@H]1CC[C@]2(O)C(=O)CO [Hydrocortisone, hydrocortisone, reference compound]	exhibited activity												time after removal of the disc by which activity was nearly gone ([1]; hydrocortisone alone): ~12 h; AUC (sum of the individual vasoconstriction scores through 18 hours) ([1]; hydrocortisone alone, 1 mM (0.036% by weight), 20 μL on disc, 4 hours, 6 forearms): 0; AUC (sum of the individual vasoconstriction scores through 18 hours) ([1]; hydrocortisone alone, 2 mM (0.073%), 6 forearms): 0; AUC (sum of the individual vasoconstriction scores through 18 hours) ([1]; hydrocortisone alone, 5 mM (0.181%), 6 forearms): 0; AUC (sum of the individual vasoconstriction scores through 18 hours) ([1]; hydrocortisone alone, 10 mM (0.363%), 6 forearms): 3; AUC (sum of the individual vasoconstriction scores through 18 hours) ([1]; hydrocortisone alone, 25 mM (0.906%), 6 forearms): 5; AUC (sum of the individual vasoconstriction scores through 18 hours) ([1]; hydrocortisone alone, 50 mM (1.81%), 6 forearms): 18; AUC (sum of the individual vasoconstriction scores through 24 hours) ([2]; HC 25 mM + Δ^1-CA 0 mM (HC alone, Δ^1-CA series)): 14; AUC (sum of the individual vasoconstriction scores through 24 hours) ([2]; HC 25 mM + Δ^1-MeCA 0 mM (HC alone, Δ^1-MeCA series)): 33
COC(=O)[C@@]1(O)CCC2C3CCC4=CC(=O)C=CC4(C)C3C(O)CC21C (stereo partly drawn) [Δ^1-Cortienic Acid Methyl Ester, methyl 11β,17α-dihydroxyandrosta-1,4-dien-3-one-17β-carboxylate]	neither Δ^1-cortienic acid nor Δ^1-cortienic acid methyl ester had any vasoconstriction activity	able to extend the time period	enhanced the vasoconstrictor activity of hydrocortisone	0	0	0	0	0	0	does not appear to add any significant benefit	increased the vasoconstriction activity of HC	synergistic results	time after which pallor could still be detected in one arm ([2]; co-applied with HC): ≥ 5 days; increasing activity and duration compared with Δ^1-CA ([2]; co-applied with HC 25 mM): higher increasing activity and longer duration
CC12C=CC(=O)C=C1CCC1C2C(O)CC2(C)C1CC[C@]2(O)C(=O)O (stereo partly drawn) [Δ^1-Cortienic Acid, 11β,17α-dihydroxyandrosta-1,4-dien-3-one-17β-carboxylic acid]	neither Δ^1-cortienic acid nor Δ^1-cortienic acid methyl ester had any vasoconstriction activity	able to extend the time period	enhanced the vasoconstrictor activity of hydrocortisone	0	0	0	0	0	0	appears to decrease activity	increased the vasoconstriction activity of HC	synergistic results	
CCOC(=O)O[C@]1(C(=O)OCCl)CC[C@H]2[C@@H]3CCC4=CC(=O)C=C[C@]4(C)[C@H]3[C@@H](O)C[C@@]21C [loteprednol, loteprednol etabonate]													intrinsic activity in receptor binding [4]: intrinsically active
